This passage reports permeability, half-life and Stabilty results from ChEMBL document CHEMBL4834421, “Deconstructing Noncovalent Kelch-like ECH-Associated Protein 1 (Keap1) Inhibitors into Fragments to Reconstruct New Potent Compounds” (J Med Chem, 2021).

For data set [1] the following is noted: pampa, 5 h.
Data set [2] can be described thus: in vitro. The conditions noted are these: CD1, mouse.
For data set [3] the following is noted: human, plasma, 3 h, 20 µM.
Data set [4] is described as follows: Stability of compound in human plasma assessed as half life at 20 uM incubated for 3 hrs by LC-MS (SIM) assay. In kind it is ADME, cell-free.

By half-life is commonly meant the time needed for the level to fall by half in the phase considered.

As for `O=C(O)CN(c1cccc(-n2ncc(C(=O)O)c2C2CC2)c1)S(=O)(=O)c1ccccc1`, the permeability in data set [1] is recorded as < 2%. The same compound returned a half-life at 4 h, 10 µM in data set [2] (liver microsomes) of 4 h.
Take `CC(C)NCC(O)COc1cccc2ccccc12` (configuration not stated) [PROPRANOLOL]: in data set [2] (microsomes), the half-life at 4 h, 10 µM came out at 0.617 h.
Regarding `CNC(=O)c1cnn(-c2cccc(NS(=O)(=O)c3ccccc3)c2)c1C1CC1`, the permeability in data set [1] is on record as < 2%.
For `COc1cccc(S(=O)(=O)N(CC(=O)O)c2cccc(-n3ncc(C(=O)O)c3[C@H]3C[C@@H]3c3ccccc3)c2)c1` (relative stereo), in data set [1], the permeability is given as < 2%. In data set [2] (liver microsomes), this compound showed a half-life at 4 h, 10 µM of 4 h. In addition, the Stabilty result in data set [3] is on record as “Stable”.
For the compound `CCCCC1CCCN1C(=O)[C@@H]1CCC[C@H](c2cccc(-n3ncc(C(=O)O)c3C3CC3)c2)C1` (some centres not stated), the Stabilty result in data set [3] is “Stable”.
In the case of `O=C(O)c1cnn(-c2cccc(NS(=O)(=O)c3ccccc3)c2)c1C1CC1`, the permeability in data set [1] is recorded as < 2%. The compound further returned a half-life at 4 h, 10 µM in data set [2] (liver microsomes) of 4 h. In data set [3], the Stabilty result is “Stable”.
Consider `CCN(CC)CCOC(=O)c1ccc(N)cc1` [PROCAINE], for which the half-life at 20 µM in data set [4] stood at 2 min.
